Laboratory results reported in patent publication US7531195B2, “Schisandrin B preparation” (priority 2005, dated 2009).
Marks after values point to notes of the source that are not given here.

Experiments:
Format in all cases: in vivo, rat
Hsp25 = assay: Tissue Hsp25 level in young female rats (Western blot); conditions: 10 mg/kg daily, 15 days
Protocol: Female Sprague-Dawley rats (8 weeks old) were maintained under a 12-h dark/light cycle at about 22° C. and allowed food and water ad libitum. Drug treated animals received a daily bolus dose of (−) Schisandrin B, α-lipoic acid (α-LA) or α-tocopherol (α-Toc) at 10, 5 and 70 mg/kg, respectively, for 15 days. The dosages were determined with reference to the equivalent amount of crude herb prescribed for human or the daily recommended intake in health supplements. The control animals received olive oil only. Twenty-four hours after the last dose, the pentobarbital-anesthetized animals were sacrificed by cardiac excision, and brain. heart, liver and skeletal muscle tissues were obtained.
Hsp25 and Hsp70 levels was estimated by Western blot analysis using specific antibodies (anti-Hsp25, catalog #SPA-801; anti-Hsp70, catalog #SPA-812) from StressGen (Vancouver, BC, Canada) following SDS-PAGE analysis of the nuclear-free tissue homogenates, using a separating gel of 10% acrylamide as described in Ip et. al. (2001). Hsp25/27 and Hsp70 (human recombinant proteins from StressGen) and actin (bovine muscle from Sigma) were used as markers for reference. […] All immuno-blots were analyzed by densitometry, and the amounts (arbitrary units) of Hsp were normalized with reference to actin levels (arbitrary units) in the sample.

Myocardial Mitochondria = assay: Myocardial mitochondrial glutathione antioxidant status, young male and female rats; conditions: 35 days
Protocol: Male/Female adult Sprague-Dawley rats (˜10 weeks old) were maintained under a 12-h dark/light cycle at about 22° C. and allowed food and water ad libitum. Animals were randomly divided into groups, with at least 5 animals in each. In the pretreatment groups, rats were treated intragastrically with (−) Schisandrin B at a daily dose of 1 or 10 mg/kg for 35 days. Control animals received oil only (10 ml/kg). Twenty-four hours following the last dosing, hearts were isolated from control or drug-pretreated rats and then subjected to Langendorff perfusion as described below.
Myocardial tissue samples were rinsed with ice-cold isotonic buffer (50 mM Tris, 0.32 M sucrose, 1 mM Na2EDTA, 0.2 mg/ml soybean trypsin inhibitor, 0.2 mg/ml bacitracine, 0.16 mg/ml benzamidine). Tissue homogenates were prepared by homogenizing 0.8 g of myocardial tissue in 8 ml ice-cold isotonic buffer and the homogenates were used for the preparation of mitochondrial fractions by differential centrifugation, as described in Chiu and Ko (2004). The mitochondrial pellets were resuspended in 1.5 ml of isotonic buffer containing 150 μl of 2 mg/ml soybean trypsin inhibitor and constituted the mitochondrial fractions.
Aliquots (500 μl) of mitochondrial fractions were taken for measuring mitochondrial GSH level by HPLC methods, using GSH as standards, respectively, as described (Chiu et al 2002). Aliquots (400 μl) of mitochondrial fractions were mixed with 933 μl Triton X-100 solution (0.3%, v/v, in isotonic buffer) and sonicated for 2 min on ice. The mixtures were then subjected to measurements of mitochondrial glutathione reductase (GRD), Se-glutathione peroxidase (GPX) and glutathione S-transferases (GST) activities by spectrophotometric methods, as described in Chiu et al. (2002).

[1] = tested on: mitochondria of brain, heart, liver and skeletal muscle; assay: Mitochondrial antioxidant status in various tissues of young female rats; conditions: (−) Sch B, α-LA, α-Toc at daily 10, 5 and 70 mg/kg respectively, 15 days
Protocol: The dosages were determined with reference to the equivalent amount of crude herb prescribed for human or the daily recommended intake in health supplements. The control animals received olive oil only. Twenty-four hours after the last dose, the pentobarbital-anesthetized animals were sacrificed by cardiac excision, and brain. heart, liver and skeletal muscle tissues were obtained. Tissue samples (brain, heart, liver, and skeletal muscle) were rinsed with ice-cold isotonic buffer (50 mM Tris, 0.32 M sucrose, 1 mM Na2EDTA, 0.2 mg/ml soybean trypsin inhibitor, 0.2 mg/ml bacitracine, 0.16 mg/ml benzamidine). Tissue homogenates were prepared by homogenizing 0.8 g of myocardial tissue in 8 ml ice-cold isotonic buffer and the homogenates were used for the preparation of mitochondrial fractions by differential centrifugation, as described in Chiu and Ko (2004). The mitochondrial pellets were resuspended in 1.5 ml of isotonic buffer containing 150 μl of 2 mg/ml soybean trypsin inhibitor and constituted the mitochondrial fractions. […] (St. Louis, Mo., USA). […] Aliquots (400 μl) of mitochondrial fractions were mixed with 933 μl Triton X-100 solution (0.3%, v/v, in isotonic buffer) and sonicated for 2 min on ice. The mixtures were then subjected to measurements of mitochondrial glutathione reductase (GRD), Se-glutathione peroxidase (GPX) and glutathione S-transferases (GST) activities by spectrophotometric methods, as described in Chiu et al. (2002).

[2] = female rats, 1 mg/kg daily oral
[3] = female rats, 10 mg/kg daily oral

In the case of `COc1cc2c(c(OC)c1OC)-c1c(cc3c(c1OC)OCO3)CC(C)C(C)C2` (single isomer, unassigned; (-)) [(−) Sch B, (−) Schisandrin B], the “changes in Hsp25 level in all tissues” value (Hsp25) is reported as “No detectable changes”, the “Heat Shock Protein Level, Hsp25” value (Hsp25; BRAIN) is reported as 0.16 ± 0.01 AU and the “Heat Shock Protein Level, Hsp25” value (Hsp25; HEART) is reported as 0.77 ± 0.05 AU. The “Heat Shock Protein Level, Hsp25” value (Hsp25; LIVER) was 0.41 ± 0.02 AU, the “Heat Shock Protein Level, Hsp25” value (Hsp25; SKELETAL MUSCLE) was 0.59 ± 0.03 AU and the GPX (Myocardial Mitochondria; [2]) was 73.2 ± 4.98^b mU/mg Protein. For the same compound, the “GPX, percent increase vs untreated control” value (“GPX, percent increase” for short) (Myocardial Mitochondria; [2]) was “(43%)”, the GRD (Myocardial Mitochondria; [2]) was 6.30 ± 0.37^b mU/mg protein and the “GRD, percent increase vs untreated control” value (from here on “GRD, percent increase”) (Myocardial Mitochondria; [2]) was “(34%)”. For the same compound, the GSH (Myocardial Mitochondria; [2]) was 17.3 ± 1.11^b nmol/mg protein, the “GSH, percent increase vs untreated control” value (from here on “GSH, percent increase”) (Myocardial Mitochondria; [2]) was “(60%)” and the GST (Myocardial Mitochondria; [2]) was 14.1 ± 0.58^b mU/mg protein. For the same compound, the “GST, percent increase vs untreated control” value (from here on “GST, percent increase”) (Myocardial Mitochondria; [2]) was “(37%)”, the GPX (Myocardial Mitochondria; [3]) was 78.3 ± 2.94^b mU/mg Protein and the “GPX, percent increase” value (Myocardial Mitochondria; [3]) was “(53%)”. For the same compound, the GRD (Myocardial Mitochondria; [3]) was 8.02 ± 0.55^b mU/mg protein, the “GRD, percent increase” value (Myocardial Mitochondria; [3]) was “(71%)” and the GSH (Myocardial Mitochondria; [3]) was 21.6 ± 0.38^b nmol/mg protein. The “GSH, percent increase” value (Myocardial Mitochondria; [3]) was “(107%)”, the GST (Myocardial Mitochondria; [3]) was 16.9 ± 0.90^b mU/mg protein and the “GST, percent increase” value (Myocardial Mitochondria; [3]) was “(63%)”. For the same compound, the GPX (Myocardial Mitochondria; male rats, 1 mg/kg daily oral) was 77.3 ± 3.78^a mU/mg Protein, the “GPX, percent increase” value (Myocardial Mitochondria; male rats, 1 mg/kg daily oral) was “(48%)” and the GRD (Myocardial Mitochondria; male rats, 1 mg/kg daily oral) was 6.76 ± 0.29 mU/mg protein. The “GRD, percent increase” value (Myocardial Mitochondria; male rats, 1 mg/kg daily oral) was “(26%)”, the GSH (Myocardial Mitochondria; male rats, 1 mg/kg daily oral) was 18.1 ± 1.06^a nmol/mg protein and the “GSH, percent increase” value (Myocardial Mitochondria; male rats, 1 mg/kg daily oral) was “(56%)”. For the same compound, the GST (Myocardial Mitochondria; male rats, 1 mg/kg daily oral) was 12.8 ± 0.10 mU/mg protein, the “GST, percent increase” value (Myocardial Mitochondria; male rats, 1 mg/kg daily oral) was “(65%)” and the GPX (Myocardial Mitochondria; male rats, 10 mg/kg daily oral) was 83.7 ± 2.12^a mU/mg Protein. For the same compound, the “GPX, percent increase” value (Myocardial Mitochondria; male rats, 10 mg/kg daily oral) was “(60%)”, the GRD (Myocardial Mitochondria; male rats, 10 mg/kg daily oral) was 7.59 ± 0.13^a mU/mg protein and the “GRD, percent increase” value (Myocardial Mitochondria; male rats, 10 mg/kg daily oral) was “(42%)”. The GSH (Myocardial Mitochondria; male rats, 10 mg/kg daily oral) was 23.8 ± 1.10^a nmol/mg protein, the “GSH, percent increase” value (Myocardial Mitochondria; male rats, 10 mg/kg daily oral) was “(105%)” and the GST (Myocardial Mitochondria; male rats, 10 mg/kg daily oral) was 14.5 ± 0.36^a mU/mg protein. For the same compound, the “GST, percent increase” value (Myocardial Mitochondria; male rats, 10 mg/kg daily oral) was “(83%)”, the GPX ([1]; BRAIN) was 163 ± 9 percent control and the GRD ([1]; BRAIN) was 150 ± 9 percent control. For the same compound, the GSH ([1]; BRAIN) was 147 ± 4 percent control, the GST ([1]; BRAIN) was 143 ± 4 percent control and the α-Toc level ([1]; BRAIN) was 141 ± 7 percent control. It also gave a GPX ([1]; HEART) of 143 ± 7 percent control, a GRD ([1]; HEART) of 163 ± 6 percent control and a GSH ([1]; HEART) of 159 ± 2 percent control. The GST ([1]; HEART) was 161 ± 5 percent control, the α-Toc level ([1]; HEART) was 160 ± 13 percent control and the GPX ([1]; LIVER) was 135 ± 3 percent control. For the same compound, the GRD ([1]; LIVER) was 161 ± 10 percent control, the GSH ([1]; LIVER) was 175 ± 5 percent control and the GST ([1]; LIVER) was 154 ± 4 percent control. For the same compound, the α-Toc level ([1]; LIVER) was 167 ± 14 percent control, the GPX ([1]; SKELETAL MUSCLE) was 125 ± 5 percent control and the GRD ([1]; SKELETAL MUSCLE) was 166 ± 4 percent control. For the same compound, the GSH ([1]; SKELETAL MUSCLE) was 137 ± 1 percent control, the GST ([1]; SKELETAL MUSCLE) was 171 ± 10 percent control and the α-Toc level ([1]; SKELETAL MUSCLE) was 178 ± 13 percent control.
